Structures can show the parent of a compound that is named as a salt.
Molecular target: T1, human serotonin transporter (hSERT) (Homo sapiens, UniProt P31645)
T1 construct: expressed in transfected cells; Tatsumi et al. 1997), membrane preparation
Assay: Screening for human serotonin transporter (hSERT) antagonists, scintillation proximity assay, competition with [3H]-Citalopram
Type: binding
Settings: membranes of HEK-293 cells, SPA
Description: The screening assay of this example was used to determine the affinity of ligands at the hSERT transporter by competition with [^3H]-Citalopram.
Scintillation Proximity Assay (SPA) works by bringing radioligand within close proximity to the bead's scintillant to stimulate light emission. In this assay, the receptor-containing membranes were pre-coupled to the SPA beads and the binding of the appropriate radioligand to the transporter was measured. The light emission was proportional to the amount of bound radioligand. Unbound radioligand produced no signal as a result of distant proximity to scintillant (lack of energy transfer). […]
Cell membranes were prepared using a membrane preparation buffer of 50 mM TRIS (pH 7.4). […] After a second centrifugation, the pellet was re-homogenized and brought to a final volume determined during the assay. […]
The % inhibition was calculated for each compound tested [(Compound counts per minute (CPM) at maximum concentration-Non-Specific CPM)/Total CPM*100]. […]
[formula] where max=total binding, min=non specific binding, x=concentration (M) of the tested compound and n=Hill slope. The inhibition dissociation constant (Ki) of each compound was determined according to the method of Cheng-Prusoff and then converted into negative logarithm (pKi) of the Ki.

T1 sequence (P31645 whole entry): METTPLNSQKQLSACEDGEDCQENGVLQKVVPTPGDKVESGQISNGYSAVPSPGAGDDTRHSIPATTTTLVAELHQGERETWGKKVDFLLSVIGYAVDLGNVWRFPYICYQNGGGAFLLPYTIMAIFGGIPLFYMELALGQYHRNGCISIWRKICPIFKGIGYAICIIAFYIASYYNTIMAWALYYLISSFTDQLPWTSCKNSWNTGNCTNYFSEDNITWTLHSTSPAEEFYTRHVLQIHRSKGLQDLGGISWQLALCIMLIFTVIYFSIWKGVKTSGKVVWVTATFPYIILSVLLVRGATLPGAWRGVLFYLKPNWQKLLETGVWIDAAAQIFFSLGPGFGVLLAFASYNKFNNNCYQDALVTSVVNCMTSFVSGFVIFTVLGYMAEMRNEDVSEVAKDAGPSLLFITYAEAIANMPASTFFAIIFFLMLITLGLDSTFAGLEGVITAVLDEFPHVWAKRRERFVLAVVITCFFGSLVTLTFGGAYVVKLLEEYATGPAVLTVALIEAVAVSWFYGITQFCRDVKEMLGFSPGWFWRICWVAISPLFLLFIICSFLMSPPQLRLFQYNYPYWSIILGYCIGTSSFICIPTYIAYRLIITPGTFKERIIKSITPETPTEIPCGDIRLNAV

| Ki | SMILES |
| --- | --- |
| ~0.1 nM | CNCc1ccccc1Cc1ccc2[nH]cc(C#N)c2c1 [Compound 29, 5-(2-Methylaminomethyl-benzyl)-1H-indole-3-carbonitrile] |

System: not given
Assay: not given
Settings: not given

| melting point | SMILES |
| --- | --- |
| 135 to 136 °C | CNCc1cc(N2CCOCC2)ccc1Cc1ccc2[nH]ccc2c1 (as salt: fumarate) [Compound 39, [2-(1H-Indol-5-ylmethyl)-5-morpholin-4-yl-benzyl]-methyl-amine] |
| 95 to 97 °C | CNCCc1ccccc1Cc1ccc2[nH]ccc2c1 |
| 97 to 100 °C | CNCc1ccc(C(N)=O)cc1Cc1ccc2[nH]ccc2c1 [Compound 44, 3-(1H-Indol-5-ylmethyl)-4-methylaminomethyl-benzamide] |
| 164 to 165 °C | CNCc1cc(Cl)ccc1Cc1ccc2[nH]ccc2c1 [Compound 27, [5-Chloro-2-(1H-indol-5-ylmethyl)-benzyl]-methyl-amine] |
| 179 to 180 °C | CNCc1ccccc1Cc1ccc2[nH]cc(C#N)c2c1 [Compound 29, 5-(2-Methylaminomethyl-benzyl)-1H-indole-3-carbonitrile] |
| 144 to 145 °C | CNCc1cc(C#N)ccc1Cc1ccc2[nH]ccc2c1 [Compound 38, 4-(1H-Indol-5-ylmethyl)-3-methylaminomethyl-benzonitrile] |
| 117 to 118 °C | OCCNCc1ccccc1Cc1ccc2[nH]ccc2c1 [Compound 21, 2-[2-(1H-Indol-5-ylmethyl)-benzylamino]-ethanol] |
| 198 to 199 °C | CNCc1ccccc1Cc1ccc2[nH]ccc2c1 (as salt: hydrochloride) [Compound 1, [2-(1H-Indol-5-ylmethyl)-benzyl]-methyl-amine] |
| 132 °C | CNCc1ccccc1Cc1ccc2cc[nH]c2c1 [Compound 15, [2-(1H-Indol-6-ylmethyl)-benzyl]-methyl-amine] |
| 153 °C | CNCc1cccc(Cc2ccc3[nH]ccc3c2)c1 [Compound 32, [3-(1H-Indol-5-ylmethyl)-benzyl]-methyl-amine] |
| 61 to 67 °C | c1ccc(Cn2ccnc2)c(Cc2ccc3[nH]ccc3c2)c1 [Compound 25, 5-(2-Imidazol-1-ylmethyl-benzyl)-1H-indole] |
| 100 to 102 °C | O=C1CNCCN1c1ccccc1Cc1ccc2[nH]ccc2c1 [Compound 42, 1-[2-(1H-Indol-5-ylmethyl)-phenyl]-piperazin-2-one] |
| 194 to 195 °C | c1cc2c(c(Cc3ccc4[nH]ccc4c3)c1)CCNC2 |
| 75 to 78 °C | CNCc1ccccc1C(O)c1ccc2[nH]ccc2c1 (stereo not drawn) [Compound 24, (1H-Indol-5-yl)-(2-methylaminomethyl-phenyl)-methanol] |
| 111 to 112 °C | CNCc1ccccc1Cc1cccc2[nH]ccc12 [Compound 16, [2-(1H-Indol-4-ylmethyl)-benzyl]-methyl-amine] |
| 128 to 130 °C | c1ccc(CN2CCC2)c(Cc2ccc3[nH]ccc3c2)c1 [Compound 18, 5-(2-Azetidin-1-ylmethyl-benzyl)-1H-indole] |
| 157 to 158 °C | CNCc1ccc(OC)cc1Cc1ccc2[nH]ccc2c1 [Compound 33, [2-(1H-Indol-5-ylmethyl)-4-methoxy-benzyl]-methyl-amine] |
| 173 to 174 °C | c1cc2c(c(Cc3ccc4[nH]ccc4c3)c1)CNCC2 |
| 125 to 126 °C | CNCc1cc(NS(C)(=O)=O)ccc1Cc1ccc2[nH]ccc2c1 [Compound 41, N-[4-(1H-Indol-5-ylmethyl)-3-methylaminomethyl-phenyl]-methanesulfonamide] |
| 70 to 72 °C | NCC(O)c1ccccc1Cc1ccc2[nH]ccc2c1 (stereo not drawn) [Compound 47, 2-Amino-1-[2-(1H-indol-5-ylmethyl)-phenyl]-ethanol] |
| 179 to 180 °C | CNCc1ccccc1Cc1ccc2[nH]c(S(C)(=O)=O)cc2c1 (as salt: fumarate) [Compound 49, [2-(2-Methanesulfonyl-1H-indol-5-ylmethyl)-benzyl]-methyl-amine] |
| 162 to 163 °C | CNCc1cc(F)ccc1Cc1ccc2[nH]ccc2c1 [Compound 20, [5-Fluoro-2-(1H-indol-5-ylmethyl)-benzyl]-methyl-amine] |
| 189 to 190 °C | c1ccc(N2CCOCC2)c(Cc2ccc3[nH]ccc3c2)c1 [Compound 48, 5-(2-Morpholin-4-yl-benzyl)-1H-indole] |
| 160 to 163 °C | CNCc1ccc(C#N)cc1Cc1ccc2[nH]ccc2c1 [Compound 43, 3-(1H-Indol-5-ylmethyl)-4-methylaminomethyl-benzonitrile] |
| 155 to 156 °C | CNCc1cc(OC)ccc1Cc1ccc2[nH]ccc2c1 [Compound 34, [2-(1H-Indol-5-ylmethyl)-5-methoxy-benzyl]-methyl-amine] |
| 152 to 153 °C | CNCc1scnc1Cc1ccc2[nH]ccc2c1 [Compound 45, [4-(1H-Indol-5-ylmethyl)-thiazol-5-ylmethyl]-methyl-amine] |

— patent US8198274B2, “Substituted indolyl and indazolyl derivatives and uses thereof” (Roche Palo Alto LLC, priority 2008, dated 2012)
